Values joined by “and” are separate entries in the source; they are usually repeats but may differ in a detail not shown here. Equal entries are not always repeated. “Also recorded” adds a separate entry of the source. Where two headings read alike, the source gives them in different places.
How the values were obtained:
nNOS [1] = biological target: T1, nNOS (Homo sapiens, UniProt P29475); conditions: for ActH2S, specific activity (citrulline formation) / Inhibition / vNO^H2S, NO formation rate: 0.5 mM H2S
nNOS [2] = conditions: read-out: IC50, inhibition of nNOS, cited from earlier work
[3] = cited from earlier work; for t1/2 of NO release: ref 35
eNOS [4] = biological target: T2, eNOS (Homo sapiens, UniProt P29474); format: biochemical; conditions: for ActH2S, specific activity (citrulline formation) / Inhibition / vNO^H2S, NO formation rate: 0.5 mM H2S
Target sequence in this assay (P29474 2-1203): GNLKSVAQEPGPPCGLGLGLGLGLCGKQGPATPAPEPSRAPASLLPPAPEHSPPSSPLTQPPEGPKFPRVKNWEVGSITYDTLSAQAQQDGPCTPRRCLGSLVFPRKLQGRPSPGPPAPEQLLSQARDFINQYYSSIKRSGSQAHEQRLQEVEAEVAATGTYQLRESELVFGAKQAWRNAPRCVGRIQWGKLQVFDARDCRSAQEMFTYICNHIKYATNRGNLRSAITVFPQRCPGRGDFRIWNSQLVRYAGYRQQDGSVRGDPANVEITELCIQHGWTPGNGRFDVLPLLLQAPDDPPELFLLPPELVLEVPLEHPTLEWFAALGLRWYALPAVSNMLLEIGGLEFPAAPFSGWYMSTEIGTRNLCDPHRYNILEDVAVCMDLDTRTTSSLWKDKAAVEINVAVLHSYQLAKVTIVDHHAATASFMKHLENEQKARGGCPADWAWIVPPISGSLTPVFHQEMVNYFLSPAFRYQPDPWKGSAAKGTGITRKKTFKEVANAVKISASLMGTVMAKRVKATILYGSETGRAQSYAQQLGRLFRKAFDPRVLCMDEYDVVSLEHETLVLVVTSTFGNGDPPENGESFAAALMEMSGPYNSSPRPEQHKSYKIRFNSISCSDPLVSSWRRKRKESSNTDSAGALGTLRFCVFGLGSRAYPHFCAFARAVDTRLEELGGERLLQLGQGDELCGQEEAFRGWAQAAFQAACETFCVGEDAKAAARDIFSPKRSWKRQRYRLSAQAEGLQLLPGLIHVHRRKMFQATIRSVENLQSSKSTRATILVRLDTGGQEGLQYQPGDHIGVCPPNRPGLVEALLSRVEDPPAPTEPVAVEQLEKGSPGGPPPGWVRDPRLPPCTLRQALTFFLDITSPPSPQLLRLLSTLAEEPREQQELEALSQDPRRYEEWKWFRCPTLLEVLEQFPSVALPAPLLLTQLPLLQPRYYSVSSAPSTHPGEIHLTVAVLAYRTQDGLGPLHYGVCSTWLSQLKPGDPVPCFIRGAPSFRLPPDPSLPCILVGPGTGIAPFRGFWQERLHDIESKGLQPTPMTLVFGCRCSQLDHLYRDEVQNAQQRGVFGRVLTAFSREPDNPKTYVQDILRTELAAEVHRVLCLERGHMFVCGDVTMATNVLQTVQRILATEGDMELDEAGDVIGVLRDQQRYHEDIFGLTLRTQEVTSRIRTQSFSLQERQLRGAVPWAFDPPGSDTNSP

nNOS [5] = biological target: T1, nNOS; assay: NADPH oxidation by nNOS (340 nm); format: biochemical
nNOS [6] = biological target: T1, nNOS; format: biochemical
[7] = 37 °C; cited from earlier work
eNOS [8] = biological target: T2, eNOS
nNOS [9] = biological target: T1, nNOS
mouse macrophage iNOS = biological target: T3, mouse macrophage iNOS (Mus musculus, UniProt P29477); format: biochemical; conditions: pH 7.4; read-out: IC50, citrulline formation by iNOS
T3 construct: made in house; host or cells: Escherichia coli

nNOS [10] = biological target: T1, nNOS; format: binding
eNOS [11] = biological target: T2, eNOS; assay: NADPH oxidation by eNOS (340 nm); format: biochemical; conditions: +Arg, +BH4, without Na2S

T1 sequence (P29475 whole entry): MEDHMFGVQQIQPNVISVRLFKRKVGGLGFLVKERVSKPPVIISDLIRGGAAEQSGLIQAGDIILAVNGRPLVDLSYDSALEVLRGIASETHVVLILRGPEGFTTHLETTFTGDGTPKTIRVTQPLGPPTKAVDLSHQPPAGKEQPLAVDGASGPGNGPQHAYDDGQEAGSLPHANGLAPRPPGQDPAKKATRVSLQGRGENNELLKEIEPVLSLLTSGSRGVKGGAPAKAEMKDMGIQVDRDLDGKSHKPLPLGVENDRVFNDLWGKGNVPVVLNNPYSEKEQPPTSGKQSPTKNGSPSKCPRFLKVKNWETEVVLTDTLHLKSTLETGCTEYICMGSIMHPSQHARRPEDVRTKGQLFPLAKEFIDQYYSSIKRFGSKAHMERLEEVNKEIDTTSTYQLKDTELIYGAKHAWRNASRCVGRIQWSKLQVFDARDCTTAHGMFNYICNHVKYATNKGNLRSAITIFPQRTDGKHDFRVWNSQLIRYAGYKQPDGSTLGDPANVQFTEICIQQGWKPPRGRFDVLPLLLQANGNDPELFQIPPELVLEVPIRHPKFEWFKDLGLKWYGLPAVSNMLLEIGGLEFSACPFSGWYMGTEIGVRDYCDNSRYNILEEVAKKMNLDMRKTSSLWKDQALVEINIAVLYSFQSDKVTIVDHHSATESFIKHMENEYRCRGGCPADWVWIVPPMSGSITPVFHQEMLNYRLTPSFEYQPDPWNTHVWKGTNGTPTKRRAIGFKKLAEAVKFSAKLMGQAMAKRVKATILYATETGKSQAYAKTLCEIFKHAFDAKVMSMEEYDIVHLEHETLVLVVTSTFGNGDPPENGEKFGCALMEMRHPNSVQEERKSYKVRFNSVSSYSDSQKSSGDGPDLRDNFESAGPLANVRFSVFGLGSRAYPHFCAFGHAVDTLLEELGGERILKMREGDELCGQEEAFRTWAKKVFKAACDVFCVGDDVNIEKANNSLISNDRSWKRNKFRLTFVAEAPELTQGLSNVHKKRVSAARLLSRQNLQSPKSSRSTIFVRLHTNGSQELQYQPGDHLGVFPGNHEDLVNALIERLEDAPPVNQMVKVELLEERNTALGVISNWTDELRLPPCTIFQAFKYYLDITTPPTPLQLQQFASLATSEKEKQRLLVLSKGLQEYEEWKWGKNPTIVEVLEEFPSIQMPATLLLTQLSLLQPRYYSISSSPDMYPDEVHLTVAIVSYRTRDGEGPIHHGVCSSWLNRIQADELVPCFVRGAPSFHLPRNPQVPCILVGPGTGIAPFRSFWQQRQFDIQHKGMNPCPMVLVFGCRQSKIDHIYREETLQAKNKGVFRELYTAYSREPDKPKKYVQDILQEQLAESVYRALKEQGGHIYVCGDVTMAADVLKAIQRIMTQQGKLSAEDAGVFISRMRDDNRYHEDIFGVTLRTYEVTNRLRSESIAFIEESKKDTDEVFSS
T3 sequence (P29477 whole entry): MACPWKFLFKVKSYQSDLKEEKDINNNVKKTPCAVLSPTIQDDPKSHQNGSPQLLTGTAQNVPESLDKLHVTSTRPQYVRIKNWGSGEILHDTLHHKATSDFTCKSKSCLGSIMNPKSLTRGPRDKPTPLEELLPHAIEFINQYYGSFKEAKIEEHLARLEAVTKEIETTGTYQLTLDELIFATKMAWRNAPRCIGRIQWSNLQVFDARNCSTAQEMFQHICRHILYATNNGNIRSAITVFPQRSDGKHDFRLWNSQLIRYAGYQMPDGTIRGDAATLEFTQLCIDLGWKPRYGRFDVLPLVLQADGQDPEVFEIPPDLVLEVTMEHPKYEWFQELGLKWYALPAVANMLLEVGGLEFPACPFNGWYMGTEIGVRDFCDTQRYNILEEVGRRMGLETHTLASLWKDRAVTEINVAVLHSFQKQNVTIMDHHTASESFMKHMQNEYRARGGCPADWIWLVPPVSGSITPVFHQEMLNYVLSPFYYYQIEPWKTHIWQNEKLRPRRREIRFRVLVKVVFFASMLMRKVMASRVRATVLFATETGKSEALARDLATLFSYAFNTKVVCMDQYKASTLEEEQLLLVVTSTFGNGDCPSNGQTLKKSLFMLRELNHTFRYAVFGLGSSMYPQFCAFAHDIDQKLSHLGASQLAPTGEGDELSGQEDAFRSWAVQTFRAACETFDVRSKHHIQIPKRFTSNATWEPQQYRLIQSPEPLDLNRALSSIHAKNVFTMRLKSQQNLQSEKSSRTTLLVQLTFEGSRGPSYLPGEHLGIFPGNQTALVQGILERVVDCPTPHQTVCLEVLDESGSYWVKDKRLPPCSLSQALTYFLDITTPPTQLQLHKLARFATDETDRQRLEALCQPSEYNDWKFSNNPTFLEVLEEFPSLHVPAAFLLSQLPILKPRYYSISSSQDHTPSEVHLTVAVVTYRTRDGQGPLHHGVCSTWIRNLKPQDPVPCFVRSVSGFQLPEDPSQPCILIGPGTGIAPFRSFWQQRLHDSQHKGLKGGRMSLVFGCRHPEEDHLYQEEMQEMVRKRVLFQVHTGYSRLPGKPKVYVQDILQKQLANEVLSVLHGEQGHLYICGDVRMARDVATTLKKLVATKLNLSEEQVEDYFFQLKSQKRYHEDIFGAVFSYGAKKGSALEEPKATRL

## [Na+].[Na+].[O-][N+]([O-])=NO [Angeli's salt, disodium diazen-1-ium-1,2,2-triolate]
nNOS [1]; 10 mM GSH or 2 mM DTT present
  Reversal of inhibition by thiols: completely reversed in the presence of thiols
nNOS [1]; read-out: IC50, citrulline formation by nNOS, Angeli's salt as HNO donor, 50 mM TEA pH 7.4, 10 min, 37 °C
  IC50: 190 µM

## O[C@@H](CS)[C@@H](O)CS [DTT]
nNOS [2]; ref 16
  IC50: 13200 µM
nNOS [2]; ref 27
  IC50: 160 µM

## C1COCCN1.COc1ccc(P(=S)(S)N2CCOCC2)cc1 (centres unmarked) [GYY4137]
nNOS [1]; read-out: Apparent IC50, citrulline formation by nNOS
  IC50: 2200 µM
[3]; ref 34
  t½ of H2S release: ~415 min

## S [H2S, hydrogen sulfide]
nNOS [1]; nNOS 0.5 μg/ml
  ActH2S, specific activity (citrulline formation): 53 ± 26 nmol/mg/min
  Inhibition: 86 ± 7%
  vNO^H2S, NO formation rate: 0.026 ± 0.013 µM/min
nNOS [1]; nNOS 2.0 μg/ml
  ActH2S, specific activity (citrulline formation): 31 ± 8 nmol/mg/min
  Inhibition: 92 ± 2%
  vNO^H2S, NO formation rate: 0.062 ± 0.016 µM/min
nNOS [1]; nNOS 10.0 μg/ml
  ActH2S, specific activity (citrulline formation): 24 ± 2 nmol/mg/min
  Inhibition: 92 ± 1%
  vNO^H2S, NO formation rate: 0.24 ± 0.02 µM/min
nNOS [1]; nNOS 15.0 μg/ml
  ActH2S, specific activity (citrulline formation): 29 ± 2 nmol/mg/min
  Inhibition: 91 ± 1%
  vNO^H2S, NO formation rate: 0.44 ± 0.03 µM/min
eNOS [4]; eNOS 2.0 μg/ml
  ActH2S, specific activity (citrulline formation): 98 ± 12 nmol/mg/min
  Inhibition: 24 ± 16%
  vNO^H2S, NO formation rate: 0.20 ± 0.02 µM/min
eNOS [4]; eNOS 10.0 μg/ml
  ActH2S, specific activity (citrulline formation): 134 ± 16 nmol/mg/min
  Inhibition: 16 ± 12%
  vNO^H2S, NO formation rate: 1.34 ± 0.16 µM/min
eNOS [4]; eNOS 15.0 μg/ml
  ActH2S, specific activity (citrulline formation): 146 ± 19 nmol/mg/min
  Inhibition: 5 ± 14%
  vNO^H2S, NO formation rate: 2.2 ± 0.3 µM/min
eNOS [4]; eNOS 30.0 μg/ml
  ActH2S, specific activity (citrulline formation): 136 ± 38 nmol/mg/min
  Inhibition: −6 ± 35%
  vNO^H2S, NO formation rate: 4.1 ± 1.1 µM/min
nNOS [5]; Arg and/or BH4 omitted, no NO (span over conditions), read-out: IC50, reversible inhibition of nNOS by H2S alone
  IC50: 100 to 600 µM
nNOS [6]; preincubation with 0.5 mM Na2S under turnover conditions (+CaM), 150-fold dilution
  Decrease of nNOS activity after dilution: ~70%
nNOS [6]; preincubation with 0.5 mM Na2S, CaM omitted during preincubation
  nNOS activity after dilution: activity was not affected
[7]
  pKa of the H2S/HS− equilibrium: 6.76

## [Na+].[Na+].[S-2] [Na2S, sodium sulfide]
nNOS [1]
  Effect of thiols on IC50 of inhibition of citrulline formation: none of these thiols had any impact on IC50 values
  nNOS activity blocked: ~90%
  pKa from plot of IC50 against pH: 7.310 ± 0.014
nNOS [1]; read-out: IC50, citrulline formation by nNOS
  IC50: 23 µM
nNOS [1]; read-out: IC50, citrulline formation by nNOS, pH 6
  IC50: ~15 µM and 15 µM
nNOS [1]; read-out: IC50, citrulline formation by nNOS, pH 7.4
  IC50: ~24 µM and 24 µM and 31 µM
nNOS [1]; read-out: IC50, citrulline formation by nNOS, pH 8
  IC50: ~83 µM and 83 µM
eNOS [4]
  Effect on eNOS activity: hardly affected
eNOS [4]; pH 7.4
  Effect on citrulline formation by eNOS: hardly affected at all; also recorded: only marginally affected
eNOS [8]
  Dimer/monomer ratio of eNOS: not affected by Na2S at all
nNOS [9]
  Dimeric enzyme, gel filtration: ~55%
Mouse macrophage iNOS
  IC50: ~79 µM and 79 µM
nNOS [6]
  Decrease of nNOS activity after dilution: approximately 70%
  Reversal of inhibition by thiols: none of these thiols restored the activity
  nNOS activity after dilution: not affected
nNOS [10]
  Extent of spectral transition to thiol complex: approximately 50%

## O=C([O-])[C@@H]1CCCN1[N+]([O-])=NO.O=C([O-])[C@@H]1CCCN1[N+]([O-])=NO.[Na+].[Na+] [PROLI/NO, 1-(hydroxy-NNO-azoxy)-L-proline, disodium salt]
eNOS [11]
  IC50: 100 µM
nNOS [5]; +Arg, −BH4, in the absence of Na2S, read-out: IC50, NADPH oxidation by nNOS
  IC50: ~80 µM
nNOS [5]; +Arg, −BH4, in the presence of 10 μM Na2S, read-out: IC50, NADPH oxidation by nNOS
  IC50: ~10 µM
[3]
  t1/2 of NO release: 0.017 to 0.033 min

## NCCCNCCCCN(CCCN)/[N+]([O-])=N/O [SPER/NO, (Z)-1-[N-[3-aminopropyl]-N-[4-(3-aminopropylammonio)butyl]amino]diazen-1-ium-1,2-diolate]
nNOS [5]; absence of BH4, with Na2S, after 10 min, read-out: Apparent IC50, potentiation of the inhibitory effect of Na2S on NADPH oxidation by nNOS
  IC50: 106 µM
[3]
  t1/2 of NO release: ~30 min
